Laboratory results from the NIST ThermoML archive (doi:10.1021/acs.jced.7b00192).
Numbers after ± are expanded uncertainties.

Test: molar heat capacity at constant pressure; mn = molality of the nth substance listed, in mol/kg
Conditions: 10000 kPa, Liquid, Large sample (1 g) DSC

[K+].[OH-] [potassium hydroxide] + O
molar heat capacity at constant pressure [J/K/mol]
Conditions | m1 = 0.201 | m1 = 0.5009 | m1 = 0.999 | m1 = 2.012 | m1 = 3 | m1 = 4.505 | m1 = 6.002
325 K | 74.45 ± 1.2 | 73.81 ± 1.1 | 72.8 ± 1.1 | 71.28 ± 1.1 | 70.15 ± 1.1 | 69.18 ± 1.1 | 68.41 ± 1.1
337.4 K | 74.58 ± 1.2 | 73.96 ± 1.1 | 73.05 ± 1.1 | 71.64 ± 1.1 | 70.55 ± 1.1 | 69.5 ± 1.1 | 68.84 ± 1.1
349.7 K | 74.72 ± 1.2 | 74.09 ± 1.1 | – | – | – | – | 69.19 ± 1.1
349.8 K | – | – | 73.21 ± 1.1 | 71.81 ± 1.1 | 70.8 ± 1.1 | 69.82 ± 1.1 | –
362.1 K | 74.89 ± 1.2 | 74.29 ± 1.2 | 73.45 ± 1.1 | 72.13 ± 1.1 | 71.12 ± 1.1 | 70.2 ± 1.1 | 69.62 ± 1.1
374.5 K | 75.11 ± 1.2 | 74.49 ± 1.2 | 73.67 ± 1.1 | 72.43 ± 1.1 | 71.42 ± 1.1 | 70.5 ± 1.1 | 69.98 ± 1.1
386.8 K | 75.37 ± 1.2 | 74.76 ± 1.2 | 73.96 ± 1.1 | 72.65 ± 1.1 | 71.69 ± 1.1 | 70.78 ± 1.1 | 70.31 ± 1.1
399.2 K | 75.69 ± 1.2 | 75.06 ± 1.2 | 74.27 ± 1.2 | 72.97 ± 1.1 | 72.03 ± 1.1 | 71.12 ± 1.1 | 70.62 ± 1.1
411.5 K | – | – | – | – | – | – | 70.86 ± 1.1
411.6 K | 76.08 ± 1.2 | 75.46 ± 1.2 | 74.6 ± 1.2 | 73.21 ± 1.1 | 72.28 ± 1.1 | 71.37 ± 1.1 | –
423.9 K | 76.54 ± 1.2 | 75.88 ± 1.2 | 74.91 ± 1.2 | 73.59 ± 1.1 | 72.62 ± 1.1 | 71.69 ± 1.1 | 71.13 ± 1.1
436.3 K | 77.1 ± 1.2 | 76.36 ± 1.2 | 75.36 ± 1.2 | 73.96 ± 1.1 | 72.91 ± 1.1 | 71.95 ± 1.1 | 71.43 ± 1.1
448.6 K | 77.74 ± 1.2 | – | – | – | – | – | 71.78 ± 1.1
448.7 K | – | 76.95 ± 1.2 | 75.9 ± 1.2 | 74.44 ± 1.2 | 73.28 ± 1.1 | 72.37 ± 1.1 | –
461 K | 78.47 ± 1.2 | 77.61 ± 1.2 | 76.51 ± 1.2 | 74.86 ± 1.2 | 73.71 ± 1.1 | 72.74 ± 1.1 | 72.04 ± 1.1
473.4 K | 79.36 ± 1.2 | 78.39 ± 1.2 | 77.23 ± 1.2 | 75.47 ± 1.2 | 74.29 ± 1.2 | 73.14 ± 1.1 | 72.44 ± 1.1
485.7 K | 80.4 ± 1.2 | 79.34 ± 1.2 | – | – | 74.75 ± 1.2 | 73.56 ± 1.1 | 72.83 ± 1.1
485.8 K | – | – | 78 ± 1.2 | 76.01 ± 1.2 | – | – | –
498.1 K | 81.6 ± 1.3 | 80.4 ± 1.2 | 78.94 ± 1.2 | 76.7 ± 1.2 | 75.36 ± 1.2 | 74.05 ± 1.1 | 73.27 ± 1.1
510.5 K | 83.06 ± 1.3 | 81.72 ± 1.3 | 80 ± 1.2 | 77.49 ± 1.2 | 75.91 ± 1.2 | 74.43 ± 1.2 | 73.69 ± 1.1
522.8 K | 84.83 ± 1.3 | 83.26 ± 1.3 | 81.23 ± 1.3 | – | 76.7 ± 1.2 | 74.99 ± 1.2 | 74.16 ± 1.1
522.9 K | – | – | – | 78.41 ± 1.2 | – | – | –
535.2 K | 87.02 ± 1.3 | 85.12 ± 1.3 | 82.83 ± 1.3 | 79.52 ± 1.2 | 77.5 ± 1.2 | 75.54 ± 1.2 | 74.51 ± 1.2
547.6 K | 89.76 ± 1.4 | 87.48 ± 1.4 | 84.7 ± 1.3 | 80.95 ± 1.3 | 78.49 ± 1.2 | 76.26 ± 1.2 | 75.11 ± 1.2
555 K | 91.77 ± 1.4 | 89.19 ± 1.4 | 86.04 ± 1.3 | 81.81 ± 1.3 | 79.19 ± 1.2 | 76.73 ± 1.2 | 75.41 ± 1.2
564.9 K | 95.05 ± 1.5 | 91.89 ± 1.4 | 88.12 ± 1.4 | 83.07 ± 1.3 | 80.09 ± 1.2 | 77.46 ± 1.2 | 75.77 ± 1.2
